# Data taken from ChEMBL document CHEMBL4507315 (2021).
# What was measured:
# [1] = system: Tyrosine-protein kinase ABL1 (Homo sapiens), P00519 [Q252H]; details: Compound concentration 100.0 nM
# [2] = system: ALK tyrosine kinase receptor (Homo sapiens), Q9UM73 [C1156Y]; details: Compound concentration 100.0 nM
# [3] = biological target: Cyclin-dependent kinase 11B (Homo sapiens) (UniProt P21127); details: Compound concentration 100.0 nM
# [4] = biological target: Cyclin-dependent kinase 8 (Homo sapiens) (UniProt P49336); details: Compound concentration 100.0 nM
# [5] = biological target: Cyclin-dependent kinase-like 1 (Homo sapiens) (UniProt Q00532); details: Compound concentration 100.0 nM
# [6] = biological target: Macrophage colony-stimulating factor 1 receptor (Homo sapiens) (UniProt P07333); details: Compound concentration 100.0 nM
# [7] = biological target: Death-associated protein kinase 1 (Homo sapiens) (UniProt P53355); details: Compound concentration 100.0 nM
# [8] = biological target: Epithelial discoidin domain-containing receptor 1 (Homo sapiens) (UniProt Q08345); details: Compound concentration 100.0 nM
# [9] = biological target: Dual specificity tyrosine-phosphorylation-regulated kinase 1A (Homo sapiens) (UniProt Q13627); details: Compound concentration 100.0 nM
# [10] = system: Epidermal growth factor receptor (Homo sapiens), P00533 [L858R,T790M]; details: Compound concentration 100.0 nM
# [11] = biological target: Mitogen-activated protein kinase 1 (Homo sapiens) (UniProt P28482); details: Compound concentration 100.0 nM
# [12] = biological target: Mitogen-activated protein kinase 15 (Homo sapiens) (UniProt Q8TD08); details: Compound concentration 100.0 nM
# [13] = biological target: Fibroblast growth factor receptor 4 (Homo sapiens) (UniProt P22455); details: Compound concentration 100.0 nM
# Chain of Fibroblast growth factor receptor 4 (Homo sapiens) (P22455 22-802 limits assumed): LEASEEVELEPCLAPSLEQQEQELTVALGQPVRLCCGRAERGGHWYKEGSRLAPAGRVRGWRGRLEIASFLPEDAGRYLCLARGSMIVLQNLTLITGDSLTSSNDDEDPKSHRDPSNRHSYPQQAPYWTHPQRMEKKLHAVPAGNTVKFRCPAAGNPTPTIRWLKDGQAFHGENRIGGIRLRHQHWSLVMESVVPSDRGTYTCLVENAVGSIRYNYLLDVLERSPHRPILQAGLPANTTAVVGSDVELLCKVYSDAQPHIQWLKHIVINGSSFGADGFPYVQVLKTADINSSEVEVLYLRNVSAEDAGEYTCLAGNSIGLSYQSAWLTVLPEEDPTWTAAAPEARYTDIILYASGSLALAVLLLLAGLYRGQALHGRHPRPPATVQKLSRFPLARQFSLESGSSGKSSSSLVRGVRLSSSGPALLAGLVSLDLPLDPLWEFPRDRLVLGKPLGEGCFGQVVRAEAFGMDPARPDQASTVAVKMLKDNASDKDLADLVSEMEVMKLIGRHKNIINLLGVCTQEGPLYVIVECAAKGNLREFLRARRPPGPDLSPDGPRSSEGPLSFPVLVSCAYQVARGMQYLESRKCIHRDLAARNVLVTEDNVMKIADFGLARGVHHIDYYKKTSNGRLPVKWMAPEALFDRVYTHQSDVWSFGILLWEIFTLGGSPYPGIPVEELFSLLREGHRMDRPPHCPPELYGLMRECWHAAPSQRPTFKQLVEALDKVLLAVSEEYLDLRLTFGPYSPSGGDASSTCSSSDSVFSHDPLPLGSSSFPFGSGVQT
# [14] = system: Receptor-type tyrosine-protein kinase FLT3 (Homo sapiens), P36888 [D835Y]; details: Compound concentration 100.0 nM
# [15] = system: Receptor-type tyrosine-protein kinase FLT3 (Homo sapiens), P36888 [UNDEFINED MUTATION]; details: Compound concentration 100.0 nM
# [16] = biological target: Serine/threonine-protein kinase haspin (Homo sapiens) (UniProt Q8TF76); details: Compound concentration 100.0 nM
# [17] = biological target: Homeodomain-interacting protein kinase 4 (Homo sapiens) (UniProt Q8NE63); details: Compound concentration 100.0 nM
# [18] = biological target: Mitogen-activated protein kinase kinase kinase kinase 1 (Homo sapiens) (UniProt Q92918); details: Compound concentration 100.0 nM
# [19] = biological target: Insulin-like growth factor 1 receptor (Homo sapiens) (UniProt P08069); details: Compound concentration 100.0 nM
# [20] = system: Mast/stem cell growth factor receptor Kit (Homo sapiens), P10721 [D816V]; details: Compound concentration 100.0 nM
# Chain of Mast/stem cell growth factor receptor Kit (Homo sapiens), P10721 [D816V] (P10721 whole entry D816V): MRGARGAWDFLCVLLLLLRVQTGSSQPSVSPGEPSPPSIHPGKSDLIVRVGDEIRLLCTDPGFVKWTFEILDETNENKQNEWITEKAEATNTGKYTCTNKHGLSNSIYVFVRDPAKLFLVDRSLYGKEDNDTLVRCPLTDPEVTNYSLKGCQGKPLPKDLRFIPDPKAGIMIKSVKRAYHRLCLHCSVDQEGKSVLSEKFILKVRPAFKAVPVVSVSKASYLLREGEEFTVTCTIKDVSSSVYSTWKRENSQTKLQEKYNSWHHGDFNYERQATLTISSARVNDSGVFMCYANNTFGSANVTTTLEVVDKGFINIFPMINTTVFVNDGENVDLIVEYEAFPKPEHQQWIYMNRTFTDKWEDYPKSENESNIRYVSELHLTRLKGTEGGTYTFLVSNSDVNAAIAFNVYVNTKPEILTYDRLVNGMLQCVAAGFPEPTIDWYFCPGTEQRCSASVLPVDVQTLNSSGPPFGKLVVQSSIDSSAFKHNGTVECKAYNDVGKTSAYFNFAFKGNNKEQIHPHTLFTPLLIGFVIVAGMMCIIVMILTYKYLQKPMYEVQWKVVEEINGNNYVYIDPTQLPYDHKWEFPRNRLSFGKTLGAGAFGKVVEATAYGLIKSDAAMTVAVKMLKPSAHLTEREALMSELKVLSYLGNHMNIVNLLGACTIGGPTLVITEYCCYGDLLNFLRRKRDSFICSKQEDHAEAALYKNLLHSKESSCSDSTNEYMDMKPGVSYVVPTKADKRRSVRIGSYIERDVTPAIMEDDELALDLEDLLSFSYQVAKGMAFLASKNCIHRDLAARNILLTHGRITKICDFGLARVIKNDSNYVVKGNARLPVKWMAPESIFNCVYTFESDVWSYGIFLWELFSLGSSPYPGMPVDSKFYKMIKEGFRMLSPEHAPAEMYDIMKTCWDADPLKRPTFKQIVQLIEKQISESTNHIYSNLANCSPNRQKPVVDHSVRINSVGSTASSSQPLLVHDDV
# [21] = biological target: Mitogen-activated protein kinase kinase kinase 15 (Homo sapiens) (UniProt Q6ZN16); details: Compound concentration 100.0 nM
# Chain of Mitogen-activated protein kinase kinase kinase 15 (Homo sapiens) (Q6ZN16 whole entry): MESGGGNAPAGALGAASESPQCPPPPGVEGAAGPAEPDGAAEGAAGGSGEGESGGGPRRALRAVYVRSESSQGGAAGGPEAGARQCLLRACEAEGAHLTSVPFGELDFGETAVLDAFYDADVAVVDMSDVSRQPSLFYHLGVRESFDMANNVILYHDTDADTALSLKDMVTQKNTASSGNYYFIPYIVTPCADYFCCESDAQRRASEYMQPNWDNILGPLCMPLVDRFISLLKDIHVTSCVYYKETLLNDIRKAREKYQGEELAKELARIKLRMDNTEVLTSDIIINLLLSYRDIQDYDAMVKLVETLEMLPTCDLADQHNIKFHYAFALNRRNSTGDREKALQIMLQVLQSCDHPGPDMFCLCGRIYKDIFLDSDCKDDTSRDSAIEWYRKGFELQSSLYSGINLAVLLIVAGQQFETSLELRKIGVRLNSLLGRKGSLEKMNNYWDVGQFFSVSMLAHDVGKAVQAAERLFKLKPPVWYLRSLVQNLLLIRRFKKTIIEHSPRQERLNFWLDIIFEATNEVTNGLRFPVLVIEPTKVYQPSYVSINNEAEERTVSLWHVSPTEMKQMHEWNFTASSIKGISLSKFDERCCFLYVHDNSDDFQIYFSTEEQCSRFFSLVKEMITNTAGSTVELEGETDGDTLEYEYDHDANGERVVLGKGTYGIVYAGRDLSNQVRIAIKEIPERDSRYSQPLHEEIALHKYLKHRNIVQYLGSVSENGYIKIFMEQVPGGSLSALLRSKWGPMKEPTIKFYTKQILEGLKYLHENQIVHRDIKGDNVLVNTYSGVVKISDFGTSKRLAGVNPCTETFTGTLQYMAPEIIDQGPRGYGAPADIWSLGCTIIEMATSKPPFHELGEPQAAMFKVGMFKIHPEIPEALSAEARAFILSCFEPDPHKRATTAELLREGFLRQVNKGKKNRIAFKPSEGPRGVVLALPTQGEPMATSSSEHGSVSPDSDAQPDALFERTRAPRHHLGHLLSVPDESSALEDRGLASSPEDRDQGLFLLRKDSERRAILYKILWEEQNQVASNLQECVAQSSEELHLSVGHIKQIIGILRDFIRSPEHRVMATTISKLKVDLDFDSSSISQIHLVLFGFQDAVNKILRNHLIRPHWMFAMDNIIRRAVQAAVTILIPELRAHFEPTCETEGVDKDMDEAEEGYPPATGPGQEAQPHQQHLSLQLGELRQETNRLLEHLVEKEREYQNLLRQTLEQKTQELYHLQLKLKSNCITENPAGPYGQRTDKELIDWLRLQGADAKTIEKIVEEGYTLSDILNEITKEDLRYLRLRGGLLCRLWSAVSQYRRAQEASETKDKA
# [22] = biological target: Mitogen-activated protein kinase kinase kinase 3 (Homo sapiens) (UniProt Q99759); details: Compound concentration 100.0 nM
# [23] = biological target: Mitogen-activated protein kinase kinase kinase kinase 5 (Homo sapiens) (UniProt Q9Y4K4); details: Compound concentration 100.0 nM
# Chain of Mitogen-activated protein kinase kinase kinase kinase 5 (Homo sapiens) (Q9Y4K4 whole entry, looked up): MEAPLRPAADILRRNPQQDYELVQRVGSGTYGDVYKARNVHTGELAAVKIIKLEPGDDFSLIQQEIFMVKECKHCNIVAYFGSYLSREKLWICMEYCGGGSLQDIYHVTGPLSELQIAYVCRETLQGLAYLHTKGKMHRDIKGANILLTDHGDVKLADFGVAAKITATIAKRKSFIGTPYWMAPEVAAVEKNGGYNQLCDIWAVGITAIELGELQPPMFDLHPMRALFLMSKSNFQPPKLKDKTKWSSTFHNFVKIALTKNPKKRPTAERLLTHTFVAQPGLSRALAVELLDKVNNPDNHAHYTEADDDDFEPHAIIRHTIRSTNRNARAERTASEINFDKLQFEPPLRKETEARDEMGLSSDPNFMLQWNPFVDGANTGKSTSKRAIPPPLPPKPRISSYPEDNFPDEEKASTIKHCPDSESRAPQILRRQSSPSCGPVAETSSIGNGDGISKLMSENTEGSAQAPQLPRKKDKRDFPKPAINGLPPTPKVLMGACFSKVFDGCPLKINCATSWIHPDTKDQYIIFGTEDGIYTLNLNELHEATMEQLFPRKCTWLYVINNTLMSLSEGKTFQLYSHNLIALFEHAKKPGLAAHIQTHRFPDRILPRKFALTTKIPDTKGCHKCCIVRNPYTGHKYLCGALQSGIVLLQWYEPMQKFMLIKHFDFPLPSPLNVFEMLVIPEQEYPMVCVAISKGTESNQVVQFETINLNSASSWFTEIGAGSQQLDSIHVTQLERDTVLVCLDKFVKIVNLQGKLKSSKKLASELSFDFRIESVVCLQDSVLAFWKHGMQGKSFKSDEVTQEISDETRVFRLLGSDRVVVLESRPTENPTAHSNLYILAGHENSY
# [24] = biological target: Dual specificity mitogen-activated protein kinase kinase 6 (Homo sapiens) (UniProt P52564); details: Compound concentration 100.0 nM
# [25] = biological target: Myosin light chain kinase, smooth muscle (Homo sapiens) (UniProt Q15746); details: Compound concentration 100.0 nM
# [26] = biological target: Serine/threonine-protein kinase Nek10 (Homo sapiens) (UniProt Q6ZWH5); details: Compound concentration 100.0 nM
# [27] = biological target: Serine/threonine-protein kinase Nek11 (Homo sapiens) (UniProt Q8NG66); details: Compound concentration 100.0 nM
# [28] = biological target: Mitogen-activated protein kinase 11 (Homo sapiens) (UniProt Q15759); details: Compound concentration 100.0 nM
# [29] = biological target: Serine/threonine-protein kinase PAK 4 (Homo sapiens) (UniProt O96013); details: Compound concentration 100.0 nM
# [30] = system: Phosphatidylinositol 4,5-bisphosphate 3-kinase catalytic subunit alpha isoform (Homo sapiens), P42336 [C420R]; details: Compound concentration 100.0 nM
# [31] = system: Phosphatidylinositol 4,5-bisphosphate 3-kinase catalytic subunit alpha isoform (Homo sapiens), P42336 [E542K]; details: Compound concentration 100.0 nM
# [32] = system: Phosphatidylinositol 4,5-bisphosphate 3-kinase catalytic subunit alpha isoform (Homo sapiens), P42336 [H1047Y]; details: Compound concentration 100.0 nM
# [33] = biological target: Serine/threonine-protein kinase PLK1 (Homo sapiens) (UniProt P53350); details: Compound concentration 100.0 nM
# [34] = biological target: cGMP-dependent protein kinase 1 (Homo sapiens) (UniProt Q13976); details: Compound concentration 100.0 nM
# [35] = biological target: Serine/threonine-protein kinase RIO1 (Homo sapiens) (UniProt Q9BRS2); details: Compound concentration 100.0 nM
# Chain of Serine/threonine-protein kinase RIO1 (Homo sapiens) (Q9BRS2 whole entry): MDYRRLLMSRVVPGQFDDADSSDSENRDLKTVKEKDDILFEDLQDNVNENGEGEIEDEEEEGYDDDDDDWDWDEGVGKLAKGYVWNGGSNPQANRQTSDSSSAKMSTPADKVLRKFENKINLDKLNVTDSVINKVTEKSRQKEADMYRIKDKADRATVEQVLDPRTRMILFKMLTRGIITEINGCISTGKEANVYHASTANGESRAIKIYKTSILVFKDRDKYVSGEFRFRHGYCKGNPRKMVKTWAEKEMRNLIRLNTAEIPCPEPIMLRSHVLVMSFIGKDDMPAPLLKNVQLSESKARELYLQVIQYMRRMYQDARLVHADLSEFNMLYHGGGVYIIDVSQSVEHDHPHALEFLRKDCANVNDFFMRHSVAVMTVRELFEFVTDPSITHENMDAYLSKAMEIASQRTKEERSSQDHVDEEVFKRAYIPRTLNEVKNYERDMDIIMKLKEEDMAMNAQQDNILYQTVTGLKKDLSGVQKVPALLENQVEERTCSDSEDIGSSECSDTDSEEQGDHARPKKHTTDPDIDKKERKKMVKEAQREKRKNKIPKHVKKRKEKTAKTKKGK
# [36] = biological target: SRSF protein kinase 3 (Homo sapiens) (UniProt Q9UPE1); details: Compound concentration 100.0 nM
# [37] = biological target: Non-receptor tyrosine-protein kinase TNK1 (Homo sapiens) (UniProt Q13470); details: Compound concentration 100.0 nM
# [38] = biological target: Serine/threonine-protein kinase WNK4 (Homo sapiens) (UniProt Q96J92); details: Compound concentration 100.0 nM
# [39] = biological target: Mitogen-activated protein kinase kinase kinase 19 (Homo sapiens) (UniProt Q56UN5); details: Compound concentration 100.0 nM
# [40] = biological target: Mitogen-activated protein kinase kinase kinase 20 (Homo sapiens, UniProt Q9NYL2); details: Compound concentration 100.0 nM
# [41] = biological target: Sodium-dependent dopamine transporter (Homo sapiens) (UniProt Q01959); details: Compound concentration 10.0 uM
# [42] = biological target: Beta-1 adrenergic receptor (Homo sapiens) (UniProt P08588); details: Compound concentration 10.0 uM
# Chain of Beta-1 adrenergic receptor (Homo sapiens) (P08588 whole entry, looked up): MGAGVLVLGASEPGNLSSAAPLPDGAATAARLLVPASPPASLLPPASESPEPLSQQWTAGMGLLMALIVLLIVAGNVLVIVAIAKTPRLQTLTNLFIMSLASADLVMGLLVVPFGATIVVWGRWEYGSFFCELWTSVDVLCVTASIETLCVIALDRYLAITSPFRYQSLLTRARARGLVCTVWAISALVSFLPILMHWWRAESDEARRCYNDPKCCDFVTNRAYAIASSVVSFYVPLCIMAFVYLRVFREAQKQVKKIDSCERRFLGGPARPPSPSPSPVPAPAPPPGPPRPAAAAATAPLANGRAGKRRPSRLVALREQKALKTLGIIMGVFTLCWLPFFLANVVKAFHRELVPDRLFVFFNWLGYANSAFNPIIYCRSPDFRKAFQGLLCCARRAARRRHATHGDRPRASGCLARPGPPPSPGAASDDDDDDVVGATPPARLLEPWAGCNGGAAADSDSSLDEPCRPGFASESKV
# [43] = biological target: Beta-2 adrenergic receptor (Homo sapiens) (UniProt P07550); details: Compound concentration 10.0 uM
# [44] = biological target: Sigma non-opioid intracellular receptor 1 (Homo sapiens) (UniProt Q99720); details: Compound concentration 10.0 uM
smiles,measurement,setting,value
O=C(NCCCC1CCCCC1)c1ccc(CNC(=O)c2cnn(-c3ccccc3)c2C(F)(F)F)cc1 [SR-321],residual activity,[1],98%
same,residual activity,[2],100%
same,residual activity,[3],100%
same,residual activity,[4],97%
same,residual activity,[5],80%
same,residual activity,[6],100%
same,residual activity,[7],100%
same,residual activity,[8],100%
same,residual activity,[9],99%
same,residual activity,[10],95%
same,residual activity,[11],93%
same,residual activity,[12],100%
same,residual activity,[13],100%
same,residual activity,[14],100%
same,residual activity,[15],100%
same,residual activity,[16],100%
same,residual activity,[17],100%
same,residual activity,[18],100%
same,residual activity,[19],100%
same,residual activity,[20],100%
same,residual activity,[21],84%
same,residual activity,[22],100%
same,residual activity,[23],88%
same,residual activity,[24],79%
same,residual activity,[25],100%
same,residual activity,[26],100%
same,residual activity,[27],100%
same,residual activity,[28],100%
same,residual activity,[29],100%
same,residual activity,[30],85%
same,residual activity,[31],74%
same,residual activity,[32],100%
same,residual activity,[33],93%
same,residual activity,[34],100%
same,residual activity,[35],100%
same,residual activity,[36],100%
same,residual activity,[37],88%
same,residual activity,[38],100%
same,residual activity,[39],89%
same,residual activity,[40],100%
same,inhibition,[41],22.3%
same,inhibition,[42],21.9%
same,inhibition,[43],12.4%
same,inhibition,[44],20.1%
Nc1c(C(=O)NCc2ccc(C(=O)NCCCC3CCCCC3)cc2)cnn1-c1ccccc1 [SR-318],residual activity,[1],98%
same,residual activity,[2],100%
same,residual activity,[3],100%
same,residual activity,[4],96%
same,residual activity,[5],100%
same,residual activity,[6],91%
same,residual activity,[7],92%
same,residual activity,[8],43%
same,residual activity,[9],100%
same,residual activity,[10],96%
same,residual activity,[11],100%
same,residual activity,[12],100%
same,residual activity,[13],97%
same,residual activity,[14],100%
same,residual activity,[15],100%
same,residual activity,[16],100%
same,residual activity,[17],100%
same,residual activity,[18],99%
same,residual activity,[19],98%
same,residual activity,[20],100%
same,residual activity,[21],100%
same,residual activity,[22],100%
same,residual activity,[23],100%
same,residual activity,[24],79%
same,residual activity,[25],68%
same,residual activity,[26],100%
same,residual activity,[27],94%
same,residual activity,[28],3.4%
same,residual activity,[29],99%
same,residual activity,[30],100%
same,residual activity,[31],100%
same,residual activity,[32],77%
same,residual activity,[33],100%
same,residual activity,[34],74%
same,residual activity,[35],95%
same,residual activity,[36],100%
same,residual activity,[37],91%
same,residual activity,[38],80%
same,residual activity,[39],77%
same,residual activity,[40],42%
same,inhibition,[41],26.8%
same,inhibition,[42],25.3%
same,inhibition,[43],6.62%
same,inhibition,[44],45.1%
